Measurements published in patent US12674148B2, “Cell-based reporter assay for screening inhibitors of coronavirus RNA-dependent RNA polymerase activity” (priority 2020, dated 2026).
“Also recorded” adds a separate entry of the source.

Assays:
HEK293T cells = assay: cytotoxicity / cell viability (CellTiter 96 AQueous One Solution)
MERS-CoV RdRp = MERS-CoV RdRp (Middle East respiratory syndrome-related coronavirus, UniProt K9N7C7); assay: cell-based; settings: for inhibition at 100 µM: read-out: inhibition / reduction of MERS-CoV RdRp activity
[1] = HEK-293T, read-out: MERS-CoV RdRp activity (%)

Sequence of MERS-CoV RdRp (K9N7C7 4378-5310 limits assumed): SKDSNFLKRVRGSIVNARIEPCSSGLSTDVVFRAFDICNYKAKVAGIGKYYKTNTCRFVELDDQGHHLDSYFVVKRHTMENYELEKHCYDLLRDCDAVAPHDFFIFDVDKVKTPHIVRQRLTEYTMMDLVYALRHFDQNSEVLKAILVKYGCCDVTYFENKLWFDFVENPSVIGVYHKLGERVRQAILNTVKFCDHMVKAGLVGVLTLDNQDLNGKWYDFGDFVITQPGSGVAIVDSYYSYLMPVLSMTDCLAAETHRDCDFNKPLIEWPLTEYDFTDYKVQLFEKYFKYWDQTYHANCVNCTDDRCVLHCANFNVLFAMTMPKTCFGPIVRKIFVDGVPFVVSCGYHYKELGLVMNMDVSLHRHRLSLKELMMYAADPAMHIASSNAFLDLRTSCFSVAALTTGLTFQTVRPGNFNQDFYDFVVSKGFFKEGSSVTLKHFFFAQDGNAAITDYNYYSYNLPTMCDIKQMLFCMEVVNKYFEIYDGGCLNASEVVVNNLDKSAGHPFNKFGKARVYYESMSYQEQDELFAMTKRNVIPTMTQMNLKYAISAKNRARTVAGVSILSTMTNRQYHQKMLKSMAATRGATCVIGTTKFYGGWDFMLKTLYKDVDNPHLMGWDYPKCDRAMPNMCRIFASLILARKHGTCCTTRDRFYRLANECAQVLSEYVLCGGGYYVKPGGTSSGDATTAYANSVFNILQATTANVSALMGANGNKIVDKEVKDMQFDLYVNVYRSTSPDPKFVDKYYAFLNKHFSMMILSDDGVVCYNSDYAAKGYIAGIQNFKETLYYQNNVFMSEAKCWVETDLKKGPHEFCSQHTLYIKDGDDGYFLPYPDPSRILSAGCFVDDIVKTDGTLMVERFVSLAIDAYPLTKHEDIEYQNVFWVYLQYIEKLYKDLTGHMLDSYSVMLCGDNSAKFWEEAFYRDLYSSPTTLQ

With `COc1c(-c2ccc3cc(NS(C)(=O)=O)ccc3c2)cc(-n2ccc(=O)[nH]c2=O)cc1C(C)(C)C` [dasabuvir] the cytotoxicity (HEK293T cells; HEK293T cells, 10 μM, 18 hours) was “no cytotoxicity was observed”, the “concentration at which cytotoxicity was reduced by half” value (HEK293T cells; HEK293T cells, 18 hours) was 27.143 µM and the cytotoxicity (HEK293T cells; HEK293T cells, concentration exceeding 10 μM, 18 hours) was “cytotoxicity was observed”. The IC50 (MERS-CoV RdRp) was 11.6 µM, the “effect on MERS-CoV RdRp activity (in words)” value (“effect” for short) (MERS-CoV RdRp) was “significantly inhibited, but not completely inhibited” and the “reduction of MERS-CoV RdRp activity” value (MERS-CoV RdRp) was “about 50%”. The activity at 10 µM (MERS-CoV RdRp; [1]) was 51.5 ± 4.2%.

`NC(=O)c1nc(F)c[nH]c1=O` [favipiravir] was tested, and the “effect” value (MERS-CoV RdRp) was “no significant effect”, the activity at 100 µM (MERS-CoV RdRp; [1]) was 85.8 ± 2.4% and the inhibition at 100 µM (MERS-CoV RdRp; HEK-293T) was roughly 10%.

`Nc1ccn([C@@H]2CS[C@H](CO)O2)c(=O)n1` [lamivudine] was tested, and the activity at 100 µM (MERS-CoV RdRp; [1]) was 98.3 ± 1.2%.

In the case of `CCC(CC)COC(=O)[C@H](C)N[P@](=O)(OC[C@H]1O[C@@](C#N)(c2ccc3c(N)ncnn23)[C@H](O)[C@@H]1O)Oc1ccccc1` [remdesivir], the cytotoxicity (HEK293T cells; HEK293T cells, 12 μM) is reported as “no cytotoxicity was observed”, the IC50 (MERS-CoV RdRp) is reported as 5.028 ± 0.035 µM and the activity at 12 µM (MERS-CoV RdRp; [1]) is reported as 22.3 ± 0.3%.

`NC(=O)c1ncn([C@@H]2O[C@H](CO)[C@@H](O)[C@H]2O)n1` [ribavirin] was tested, and the “effect” value (MERS-CoV RdRp) was “no significant effect”, the activity at 100 µM (MERS-CoV RdRp; [1]) was 60.3 ± 2.9% and the inhibition at 100 µM (MERS-CoV RdRp; HEK-293T) was roughly 40%.

`CC(C)OC(=O)[C@H](C)N[P@](=O)(OC[C@H]1O[C@@H](n2ccc(=O)[nH]c2=O)[C@](C)(F)[C@@H]1O)Oc1ccccc1` [sofosbuvir] was tested, and the “effect” value (MERS-CoV RdRp) was “no significant effect”, the activity at 100 µM (MERS-CoV RdRp; [1]) was 62.4 ± 5.3% and the inhibition at 100 µM (MERS-CoV RdRp; HEK-293T) was roughly 40%.

`CC(C)[C@H](N)C(=O)OCCOCn1cnc2c(=O)[nH]c(N)nc21` [valacyclovir] was tested, and the “effect” value (MERS-CoV RdRp) was “did not reduce; also recorded: no significant effect” and the activity at 100 µM (MERS-CoV RdRp; [1]) was 90.2 ± 3.2%.

In the case of `Nc1ncnc2c1ncn2[C@@H]1O[C@H](CO)[C@@H](O)[C@@H]1O` [vidarabine], the cytotoxicity (HEK293T cells; concentration not stated (tested up to 100 μM)) is reported as “did not show cytotoxicity”, the “FLuc activity (internal control)” value (MERS-CoV RdRp) is reported as “reduced in a concentration-dependent manner” and the NLuc activity (MERS-CoV RdRp) is reported as “reduced in a concentration-dependent manner”. The “effect” value (MERS-CoV RdRp) was “did not reduce; also recorded: did not affect the NLuc/FLuc ratio or MERS-CoV RdRp activity; also recorded: no significant effect” and the activity at 100 µM (MERS-CoV RdRp; [1]) was 89.9 ± 2.9%.

In the case of `Cc1cn([C@H]2C[C@H](N=[N+]=[N-])[C@@H](CO)O2)c(=O)[nH]c1=O` [zidovudine], the “effect” value (MERS-CoV RdRp) is reported as “did not reduce; also recorded: no significant effect” and the activity at 100 µM (MERS-CoV RdRp; [1]) is reported as 111 ± 3.7%.
